# Measurements published in patent US10759816B2, “Heterocyclic compounds as RSV inhibitors” (Enanta Pharmaceuticals, Inc., priority 2016, dated 2020).
# pEC50: −log10 of the molar value.
# System: genotype A, "Long" strain RSV
# Test: RSV-A in vitro cytoprotection assay in HEp-2 cells (ATPlite readout of cell viability)
# Type: cell-based, Human respiratory syncytial virus
# Settings: human respiratory syncytial virus, HEp-2, HEp-2 cells, genotype A “Long” strain RSV, cytoprotection; read-out: Human RSV-A (“Long” strain) EC50
# How it was run: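 HEp-2 cells (8,000/well) given 2-fold compound dilutions in duplicate, then infected with RSV-A Long strain stock; viability read by ATPlite luminescence after 4 days. EC50 derived from cytoprotection; cytotoxicity measured on parallel uninfected plate.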
row,SMILES,pEC50
1,Cc1cccc(F)c1NC(=O)c1cc2c(s1)-c1ccc(F)cc1N(C(=O)c1cccc(N3C[C@@H](O)C[C@@H]3C)n1)CC2 [Example 493],> 6.40
2,COc1ccc2c(ccn2-c2cccc(C(=O)N3CCc4cc(C(=O)NC5CC5)sc4-c4ccccc43)n2)c1 [Example 113],< 6.10
3,CS(=O)(=O)N1CCCc2cc(C(=O)N3CCc4cc(C(=O)NC5CC5)sc4-c4ccccc43)ccc21 [Example 9],< 6.10
4,Cc1cccc(F)c1NC(=O)c1cc2c(s1)-c1ccccc1N(C(=O)c1ccc(NC(=O)NCCN3CCOCC3)cc1)CC2 [Example 129],< 6.10
5,CCOCCNc1cccc(C(=O)N2CCc3cc(C(=O)Nc4c(C)cccc4F)sc3-c3ccccc32)n1 [Example 330],> 6.40
6,Cc1cnc(N2CCC3(COC3)C2)c(NC(=O)c2ccc(C(=O)N3CCc4cc(C(=O)Nc5c(C)cccc5F)sc4-c4ccccc43)cc2)c1 [Example 139],< 6.10
7,O=C(NC1CC1)c1cc2c(s1)-c1ccccc1N(C(=O)c1cccc(-c3cnc(N4CCOCC4)c(F)c3)n1)CC2 [Example 92],6.10 to 6.40
8,COc1ccc(-c2cccc(C(=O)N3CCc4cc(C(=O)NCC5CC5)sc4-c4ccccc43)n2)cn1 [Example 96],6.10 to 6.40
9,Cc1cnc2[nH]cc(-c3cccc(C(=O)N4CCc5cc(C(=O)Nc6c(C)cccc6F)sc5-c5ccccc54)n3)c2c1 [Example 245],> 6.40
10,O=C(NC1CC1)c1cc2c(s1)-c1ccccc1N(C(=O)c1ccc(N3CCOCC3)cc1)CC2 [Example 3],< 6.10
11,Cc1cccc(F)c1NC(=O)c1cc2c(s1)-c1ccccc1N(C(=O)c1cccc(N3CCOc4cccc(F)c4C3)n1)CC2 [Example 368],> 6.40
12,Cc1cccc(F)c1NC(=O)c1cc2c(s1)-c1ccccc1N(C(=O)c1cccc(NCC3(S(C)(=O)=O)CC3)n1)CC2 [Example 466],> 6.40
13,Cc1cccc(F)c1NC(=O)c1cc2c(s1)-c1ccccc1N(C(=O)c1cccc(N3C(=O)Cc4ccccc43)n1)CC2 [Example 451],< 6.10
14,Cc1cccc(F)c1NC(=O)c1cc2c(s1)-c1ccccc1N(C(=O)c1cccc(-c3c[nH]nc3/C=C/c3ccccc3)n1)CC2 [Example 265],< 6.10
15,Cc1cccc(F)c1NC(=O)c1cc2c(s1)-c1ccccc1N(C(=O)c1cccc(N3CC4(COC4)C3)n1)CC2 [Example 426],< 6.10
16,Cc1cccc(F)c1NC(=O)c1cc2c(s1)-c1ccccc1N(C(=O)c1cccc(NC3CCS(=O)(=O)C3)n1)CC2 (stereo not drawn) [Example 438],> 6.40
17,Cc1cccc(F)c1NC(=O)c1cc2c(s1)-c1ccccc1N(C(=O)c1cccc(N3CCC[C@@H]3Cc3ccccc3)n1)CC2 [Example 486],< 6.10

row,SMILES,pEC50
1,O=C(NC1CC1)c1cc2c(s1)-c1ccccc1N(C(=O)c1cccc(NCc3ccccn3)n1)CC2 [Example 288],< 6.10
2,Cc1cccc(F)c1NC(=O)c1cc2c(s1)-c1ccccc1N(C(=O)c1cccc(N(C)Cc3cccc(-c4ccncc4)c3)n1)CC2 [Example 346],6.10 to 6.40
3,Cc1cccc(F)c1NC(=O)c1cc2c(s1)-c1ccccc1N(C(=O)c1cccc(N3C[C@@H]4CC(F)(F)C[C@@H]4C3)n1)CC2 [Example 449],< 6.10
4,NNC(=O)c1ccc2c(c1)CCN(C(=O)c1cccc(N3CCOc4ccccc4C3)n1)c1ccccc1-2 [Example 398],< 6.10
5,COc1ncccc1Oc1cccc(C(=O)N2CCc3cc(C(=O)NC4CC4)sc3-c3ccccc32)n1 [Example 394],< 6.10
6,COc1cccc(CN(C)c2cccc(C(=O)N3CCc4cc(C(=O)NC5CC5)sc4-c4ccccc43)n2)c1 [Example 296],< 6.10
7,COC(C)(C)CN(C)c1cccc(C(=O)N2CCc3cc(C(=O)Nc4c(C)cccc4F)sc3-c3ccccc32)n1 [Example 470],> 6.40
8,Cc1cccc(F)c1NC(=O)c1cc2c(s1)-c1cc(F)ccc1N(C(=O)c1cccc(-c3c[nH]nc3C3CC3)n1)CC2 [Example 263],> 6.40
9,O=C(NC1CC1)c1cc2c(s1)-c1ccccc1N(C(=O)c1cccc(-c3ccc(N4CCCOCC4)nc3)n1)CC2 [Example 90],6.10 to 6.40
10,COC[C@H]1CCCN1c1cccc(C(=O)N2CCc3cc(C(=O)Nc4c(C)cccc4F)sc3-c3cc(F)ccc32)n1 [Example 359],> 6.40
11,Cc1cnc(N2CC3(COC3)C2)c(NC(=O)c2ccc(C(=O)N3CCc4cc(C(=O)Nc5c(C)cccc5F)sc4-c4ccccc43)cc2)c1 [Example 141],< 6.10
12,COC(=O)N[C@H]1C[C@H](C)N(c2cccc(C(=O)N3CCc4cc(C(=O)Nc5c(C)cccc5F)sc4-c4ccccc43)n2)C1 [Example 391],> 6.40
13,Cc1cccc(F)c1NC(=O)c1cc2c(s1)-c1ccccc1N(C(=O)c1cccc(NC(C)(C)c3ccccn3)n1)CC2 [Example 358],> 6.40
14,COc1ccc2c(c1)OCCN(c1cccc(C(=O)N3CCc4cc(C(=O)Nc5c(C)cccc5F)sc4-c4ccccc43)n1)C2 [Example 366],> 6.40
15,Cc1cccc(F)c1NC(=O)c1cc2c(s1)-c1ccccc1N(C(=O)c1cccc(N3CC4(C3)CS(=O)(=O)C4)n1)CC2 [Example 428],< 6.10
16,O=C(NC1CC1)c1cc2c(s1)-c1ccccc1N(C(=O)c1ccnc(N3CCOCC3)n1)CC2 [Example 51],6.10 to 6.40
